Source: patent publication US10910642B1, “Redox flow battery having ligand-metal complex” (Los Alamos National Security, LLC, priority 2017, dated 2021)

Assay: Complex solubility in acetonitrile with 0.1 M tetrabutylammonium hexafluorophosphate
Format: physicochemical
Settings: room temperature
Description: FIG. 8 is a graph depicting the complex solubility in acetonitrile with 0.1 M tetrabutylammonium hexafluorophosphate.

CCC(CC[N-]C(=O)c1ccccn1)[N-]C(=O)c1ccccn1.[Ni+2] (stereo not shown) [Ni((Etbppn)]
maximum solubility: 15 mM
